The record followed here is patent US10160755B2 (Plexxikon Inc., priority 2015, dated 2018).

Structures are written as SMILES. Substitutions are numbered along the chain they refer to.

Assay [1] addresses T1, BA/F3-FLT3-ITD + D835Y cells (Homo sapiens, UniProt P36888, D835Y, cells depend on it, form not given).
T1 sequence (P36888 1-993 D835Y): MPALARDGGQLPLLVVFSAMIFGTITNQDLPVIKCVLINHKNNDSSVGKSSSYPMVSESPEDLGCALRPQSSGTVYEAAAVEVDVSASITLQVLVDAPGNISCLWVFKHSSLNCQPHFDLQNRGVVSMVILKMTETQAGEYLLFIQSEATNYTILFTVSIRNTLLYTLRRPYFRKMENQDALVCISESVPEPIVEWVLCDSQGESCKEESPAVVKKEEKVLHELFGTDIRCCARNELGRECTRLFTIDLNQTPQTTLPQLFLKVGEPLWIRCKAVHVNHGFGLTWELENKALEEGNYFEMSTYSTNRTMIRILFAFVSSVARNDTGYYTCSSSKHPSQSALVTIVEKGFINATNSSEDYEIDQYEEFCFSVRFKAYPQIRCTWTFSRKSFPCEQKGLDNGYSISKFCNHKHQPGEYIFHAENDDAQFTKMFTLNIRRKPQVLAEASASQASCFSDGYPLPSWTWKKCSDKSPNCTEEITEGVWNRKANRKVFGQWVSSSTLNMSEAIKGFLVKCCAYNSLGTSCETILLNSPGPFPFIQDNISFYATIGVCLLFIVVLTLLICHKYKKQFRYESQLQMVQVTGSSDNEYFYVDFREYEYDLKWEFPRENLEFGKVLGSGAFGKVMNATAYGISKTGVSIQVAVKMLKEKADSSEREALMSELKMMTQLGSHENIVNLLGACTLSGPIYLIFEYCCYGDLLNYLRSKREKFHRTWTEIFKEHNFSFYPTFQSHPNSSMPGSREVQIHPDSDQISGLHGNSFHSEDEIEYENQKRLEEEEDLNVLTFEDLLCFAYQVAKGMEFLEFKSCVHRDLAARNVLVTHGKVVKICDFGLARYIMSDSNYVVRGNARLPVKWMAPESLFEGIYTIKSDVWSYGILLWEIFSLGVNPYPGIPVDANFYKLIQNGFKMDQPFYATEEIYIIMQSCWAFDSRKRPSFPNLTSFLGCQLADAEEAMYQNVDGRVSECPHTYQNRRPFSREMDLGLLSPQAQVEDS
Kind of assay: BA/F3-FLT3-ITD + D835Y cell proliferation assay (CellTiter-Glo). Format: cell-based, murine. The note with it: BaF3 cells, read-out: BaF3_FLT3_ITD/D835Y IC50. From the text:
The FLT3 inhibitors may also be assessed using leukemia cell lines that express endogenous FLT3-ITD or cells that are engineered to express wild-type or mutant FLT3. The cells expressing endogenous FLT3 are dependent upon FLT3 catalytic activity for growth. For the engineered cells, murine BA/F3 cells were transfected with full-length FLT3 (either wild-type, or containing the ITD, D835Y, or F691L mutations, as noted). The parental BA/F3 cells are dependent upon Interleukin-3 (IL-3) for survival, and introduction of the FLT3 constructs renders these cells dependent upon FLT3 kinase activity when cultured in the absence of IL-3. Engineered BA/F3 cell growth assays can be performed in either the absence or presence of IL-3, to assess the compound inhibition of FLT3 or to detect the presence of off-target activity, respectively. Inhibitors of FLT3 kinase activity reduce or eliminate the FLT3 oncogenic signaling, resulting in reduced cell proliferation. This inhibition is measured as a function of compound concentration to assess IC50 values.
Cells were seeded at 1×10^4 cells per well of a 96 well cell culture plate in 50 μl of cell culture medium. Compounds were dissolved in DMSO, typically at a concentration of 5 mM and were serially diluted 1:3 for a total of eight points and added to the cells to final concentrations of 10, 3.3, 1.1, 0.37, 0.12, 0.041, 0.014 and 0.0046 μM in 100 μl cell culture medium (final concentration 0.2% DMSO). […] The cells were incubated at 37° C., 5% CO2 for three days. CellTiter-Glo Buffer (Promega Cell Viability Assay catalog #G7573) and substrate were equilibrated to room temperature, and enzyme/substrate Recombinant Firefly Luciferase/Beetle Luciferin was reconstituted. […] The plates were read on a Tecan M1000 using Luminescence protocol modified to read 0.1 s per well. The luminescence reading assesses the ATP content, which correlates directly with cell number such that the reading as a function of compound concentration was used to determine the IC50 value.
In general terms: In ATP-based viability assays light output follows the ATP content of the culture.

The target in a further assay is c-Kit (Homo sapiens, UniProt P10721). In words: c-Kit biochemical assay (per US 2007/0032519). Summed up: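 Biochemical kinase inhibition run per US 2007/0032519; values reported as binned IC50 ranges (0.0001–1 μM, 1–10 μM, 10–200 μM).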
For the next assay, the target named is T2, FLT3-ITD (Homo sapiens, UniProt P36888).
T2 construct: FLT3-ITD; Invitrogen #PV6190
T2 sequence (P36888 1-993): T1 sequence (P36888 1-993 D835Y) with Y835D
Kind of assay: FLT3-ITD biochemical kinase assay (AlphaScreen). The procedure, abridged: (§1)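 Recombinant kinase, biotin-GG(EEEEY)10EE 30 nM final, ATP 10 μM (D835Y) / 100 μM (ITD). Stop/detect: SA donor beads 20 min RT, then PY20 acceptor beads 60 min RT. AlphaScreen 580 nm signal; IC50.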
For orientation: Alpha assays give light when donor and acceptor beads are brought close together.

The target of a further assay is T3, FLT3-D835Y (Homo sapiens, UniProt P36888, D835Y).
T3 construct: purchased Invitrogen PV3967
T3 sequence (P36888 27-993 D835Y): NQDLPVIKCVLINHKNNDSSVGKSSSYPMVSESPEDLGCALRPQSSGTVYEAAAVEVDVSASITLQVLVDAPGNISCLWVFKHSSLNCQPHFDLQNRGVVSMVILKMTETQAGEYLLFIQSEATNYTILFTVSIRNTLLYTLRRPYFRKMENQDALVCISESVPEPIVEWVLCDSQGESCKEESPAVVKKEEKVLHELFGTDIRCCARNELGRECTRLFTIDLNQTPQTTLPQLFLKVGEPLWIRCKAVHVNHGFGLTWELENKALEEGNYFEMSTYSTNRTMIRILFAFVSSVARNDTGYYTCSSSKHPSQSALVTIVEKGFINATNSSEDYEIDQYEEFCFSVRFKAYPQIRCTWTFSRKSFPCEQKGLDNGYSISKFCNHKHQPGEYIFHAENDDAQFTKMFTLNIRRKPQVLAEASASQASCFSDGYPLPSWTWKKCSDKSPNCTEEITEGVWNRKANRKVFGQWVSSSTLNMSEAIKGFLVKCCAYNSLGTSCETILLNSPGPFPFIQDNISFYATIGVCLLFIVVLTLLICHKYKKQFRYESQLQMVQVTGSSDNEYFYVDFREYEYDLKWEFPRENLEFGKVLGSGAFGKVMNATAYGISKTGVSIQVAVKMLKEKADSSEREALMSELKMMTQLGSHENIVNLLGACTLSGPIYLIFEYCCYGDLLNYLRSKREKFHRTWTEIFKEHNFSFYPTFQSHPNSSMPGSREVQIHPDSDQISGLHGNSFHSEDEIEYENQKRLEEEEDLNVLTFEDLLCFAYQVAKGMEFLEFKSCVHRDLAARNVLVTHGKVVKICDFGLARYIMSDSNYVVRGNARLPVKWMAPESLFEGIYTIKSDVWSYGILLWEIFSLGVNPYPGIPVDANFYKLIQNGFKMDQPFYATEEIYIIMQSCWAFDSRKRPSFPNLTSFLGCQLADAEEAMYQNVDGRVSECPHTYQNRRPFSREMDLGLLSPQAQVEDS
In words: FLT3-D835Y biochemical kinase assay (AlphaScreen). The procedure, abridged: as §1

c-Kit, sequence (P10721 26-976): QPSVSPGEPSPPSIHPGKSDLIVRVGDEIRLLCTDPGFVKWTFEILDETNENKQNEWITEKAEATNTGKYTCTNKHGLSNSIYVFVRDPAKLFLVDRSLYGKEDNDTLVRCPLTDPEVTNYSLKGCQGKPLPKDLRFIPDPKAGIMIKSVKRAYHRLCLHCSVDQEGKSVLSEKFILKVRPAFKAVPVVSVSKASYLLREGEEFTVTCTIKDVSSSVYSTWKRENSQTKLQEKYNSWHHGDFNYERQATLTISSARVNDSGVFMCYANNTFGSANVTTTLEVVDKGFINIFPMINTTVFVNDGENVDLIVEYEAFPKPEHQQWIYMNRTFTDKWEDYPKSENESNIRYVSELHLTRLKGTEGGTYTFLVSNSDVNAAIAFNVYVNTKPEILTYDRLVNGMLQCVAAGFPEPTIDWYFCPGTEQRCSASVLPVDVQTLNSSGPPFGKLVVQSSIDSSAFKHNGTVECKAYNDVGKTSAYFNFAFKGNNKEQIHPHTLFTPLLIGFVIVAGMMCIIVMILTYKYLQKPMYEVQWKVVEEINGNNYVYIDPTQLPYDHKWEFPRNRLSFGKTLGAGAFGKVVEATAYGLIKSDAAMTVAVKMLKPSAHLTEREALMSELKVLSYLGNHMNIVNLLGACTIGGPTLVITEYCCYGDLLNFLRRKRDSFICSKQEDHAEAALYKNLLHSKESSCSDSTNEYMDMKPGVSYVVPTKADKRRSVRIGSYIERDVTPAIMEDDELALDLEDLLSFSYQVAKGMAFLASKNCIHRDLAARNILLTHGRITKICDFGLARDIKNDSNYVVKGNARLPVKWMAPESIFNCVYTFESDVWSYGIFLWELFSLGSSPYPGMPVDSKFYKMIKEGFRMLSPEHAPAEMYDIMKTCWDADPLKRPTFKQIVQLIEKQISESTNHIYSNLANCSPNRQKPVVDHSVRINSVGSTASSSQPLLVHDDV

For the compound `COc1cnc2[nH]cc(-c3ccc4ncsc4c3)c2c1` [Compound 3], the GI50 in assay [1] was 237 nM.

In the case of `COc1cnc2[nH]cc(-c3ccc4[nH]cnc4c3)c2c1` [Compound 2], the GI50 in assay [1] was determined as 225 nM.

With `COc1cnc2[nH]cc(-c3ccc4[nH]ccc4c3)c2c1` [Compound 1, reference compound], the GI50 in assay [1] was determined as 839 nM.

What is called IC50 is the concentration that inhibits the measured activity by half. A high value points to lower potency. Take `CS(=O)(=O)Nc1cccc(-c2cnc3[nH]cc(-c4ccc5ncsc5c4)c3n2)c1` [P-054, N-[3-[7-(1,3-benzothiazol-6-yl)-5H-pyrrolo[2,3-b]pyrazin-2-yl]phenyl]methanesulfonamide]: the results for the IC50 against c-Kit, against FLT3-ITD and on FLT3-D835Y were 1 to 10 µM, 0.0001 to 1 µM and 0.0001 to 1 µM, respectively.

As for `Cn1cnc2ccc(-c3c[nH]c4ncc(C5=CCN(C(=O)C6CC6)C5)nc34)cc21` [P-082, cyclopropyl-[3-[7-(3-methylbenzimidazol-5-yl)-5H-pyrrolo[2,3-b]pyrazin-2-yl]-2,5-dihydropyrrol-1-yl]methanone], the half-inhibitory concentration (IC50) at c-Kit is 1 to 10 µM; against FLT3-ITD, 0.0001 to 1 µM; against FLT3-D835Y, 0.0001 to 1 µM.

For the compound `Cc1cnc2[nH]cc(-c3ccc4ncn(C)c4c3)c2c1` [P-018, 1-methyl-6-(5-methyl-1H-pyrrolo[2,3-b]pyridin-3-yl)benzimidazole], the concentration for half-maximal inhibition (IC50) fell in the range of 1 to 10 µM against c-Kit, 0.0001 to 1 µM on FLT3-ITD and 0.0001 to 1 µM at FLT3-D835Y.

Regarding `Cn1cnc2ccc(-c3c[nH]c4ncc(-c5cccc(S(N)(=O)=O)c5)cc34)cc21` [P-044, 3-[3-(3-methylbenzimidazol-5-yl)-1H-pyrrolo[2,3-b]pyridin-5-yl]benzenesulfonamide], the half-maximal inhibitory concentration (IC50) against c-Kit fell in the range of 10 to 200 µM; against FLT3-ITD it was 0.0001 to 1 µM; at FLT3-D835Y, 0.0001 to 1 µM.

As for `COC(=O)c1cc(-c2cnc3[nH]cc(-c4ccc5ncn(C)c5c4)c3c2)ccc1C` [P-119], the results for the IC50 against c-Kit, at FLT3-ITD and on FLT3-D835Y were 10 to 200 µM, 0.0001 to 1 µM and 0.0001 to 1 µM, respectively.

As to `CS(=O)(=O)Nc1cccc(-c2cnc3[nH]cc(-c4ccc5ncn(CC(F)(F)F)c5c4)c3n2)c1` [P-069, N-[3-[7-[3-(2,2,2-trifluoroethyl)benzimidazol-5-yl]-5H-pyrrolo[2,3-b]pyrazin-2-yl]phenyl]methanesulfonamide], the IC50 against c-Kit lay within 10 to 200 µM; on FLT3-ITD, 0.0001 to 1 µM; against FLT3-D835Y it was 0.0001 to 1 µM.

`COc1cnc2[nH]cc(-c3ccc4ncn(C)c4c3)c2c1` [P-016, 5-methoxy-3-(3-methylbenzimidazol-5-yl)-1H-pyrrolo[2,3-b]pyridine]: the IC50 on c-Kit was in the range of 10 to 200 µM; on FLT3-ITD, 0.0001 to 1 µM; against FLT3-D835Y, 0.0001 to 1 µM.

Regarding `Cn1cnc2ccc(-c3c[nH]c4ncc(-c5cccc(C#N)c5)cc34)cc21` [P-089, 3-[3-(3-methylbenzimidazol-5-yl)-1H-pyrrolo[2,3-b]pyridin-5-yl]benzonitrile], the IC50 on c-Kit lay in the range of 10 to 200 µM; against FLT3-ITD it was 0.0001 to 1 µM; on FLT3-D835Y, 0.0001 to 1 µM.

As to `COc1cnc2[nH]cc(-c3ccc4ncn(C5CC5)c4c3)c2c1` [P-060, 1-cyclopropyl-6-(5-methoxy-1H-pyrrolo[2,3-b]pyridin-3-yl)benzimidazole], the IC50 at c-Kit fell in the range of 10 to 200 µM; at FLT3-ITD, 0.0001 to 1 µM; at FLT3-D835Y, 0.0001 to 1 µM.
